The record followed here is ChEMBL document CHEMBL1201862, “PubChem BioAssay data set” (2004).

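Grown in 96-well plates, cells were treated for 48 hours with each compound at five concentrations. Insufficient inhibition: endpoint recorded as highest concentration tested. GI50 is the concentration that inhibits growth by half.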 Activity calls are given as the source filed them. Rule as the data show it: active = GI50 up to about 1.1 µM and inactive = higher.

Common to all, as to assay: NCI anticancer screen, dose series, 48 h
For experiment [1], the system named is CAKI-1.
In experiment [2] the test system is DMS-273.
Experiment [3] relates to EKVX.
The subject of experiment [4] is HCT-116.
Experiment [5] concerns HCT-15.
Experiment [6] has as its system HL-60.
For experiment [7], the system named is HT-29.
For experiment [8], the system named is KM12.
In experiment [9] the test system is MDA-N.
The subject of experiment [10] is RPMI-8226.
For experiment [11], the system named is SF-268.
The test system of experiment [12] is SF-295.
The test system of experiment [13] is SK-MEL-2.
Experiment [14] deals with SK-MEL-5.
The subject of experiment [15] is UACC-257.
For experiment [16], the system named is UACC-62.
Experiment [17] relates to UO-31.
Experiment [18] relates to OVCAR-4.
Experiment [19] has as its system SNB-75.
Experiment [20] relates to T47D.

In the case of `COC1=C2C[C@@H](C)C[C@@H](OC)[C@@H](O)[C@H](C)/C=C(\C)[C@@H](OC(N)=O)[C@H](OC)/C=C\C=C(/C)C(=O)NC(=CC1=O)C2=O`, the GI50 was 1770 nM (inactive) in experiment [1]; 117 nM (active) in experiment [2]; 6560 nM (inactive) in experiment [3]; 41.9 nM (active) in experiment [4]; 265 nM in experiment [5]; 13.2 nM (active) in experiment [6]. Moreover, the GI50 in [7] is 14.3 nM (active); in [8], 455 nM (active); in [9] it was 21.6 nM (active); in experiment [10], 138 nM (active); in [11], 1010 nM (active); in experiment [12], 9380 nM (inactive). Further, the GI50 in [13] is 396 nM (active); in experiment [14], 678 nM (active); in [15] it was 76.9 nM (active); in experiment [16], 122 nM (active); in experiment [17], 189 nM (active).
On to `CN(C)CCNC(=O)c1cccc2nc3c4ccccc4c4ccccc4c3nc12`, for which the GI50 was 17600 nM (inactive) in experiment [1]; 2810 nM (inactive) in experiment [2]; 5770 nM (inactive) in [3]; 1530 nM (inactive) in experiment [4]; 1690 nM in [5]; 1760 nM (inactive) in [6]. Besides, the GI50 in [7] was 1510 nM (inactive); in experiment [8], 1560 nM (inactive); in [9], 1650 nM (inactive); in experiment [18] it was 1800 nM (inactive); in experiment [10], 1560 nM (inactive); in experiment [11], 569 nM (active). In addition, the GI50 in [12] was 2160 nM (inactive); in [13], 3220 nM (inactive); in [14], 3370 nM (inactive); in [19] it was 2520 nM (inactive); in experiment [20], 8130 nM (inactive); in [15] it was 3860 nM (inactive). The GI50 was 2350 nM (inactive) in experiment [16] and 9440 nM (inactive) in [17].
With `COc1cccc2c1C(=O)c1c(O)c3c(c(O)c1C2=O)C[C@@](O)(C(=O)CO)CC3OC1CC(N)C(OC2CCCCO2)C(C)O1` (some centres not stated), the GI50 in experiment [1] is 916 nM (active); in [2] it was 308 nM (active); in experiment [3], 1390 nM (inactive); in experiment [4] it was 324 nM (active); in experiment [5], 1610 nM; in [6], 207 nM (active). Further, the GI50 in experiment [7] is 853 nM (active); in [8] it was 39.9 nM (active); in [9], 124 nM (active); in [18] it was 36.6 nM (active); in [10] it was 330 nM (active); in experiment [11], 785 nM (active). Further, the GI50 was 230 nM (active) in [12]; 1850 nM (inactive) in experiment [13]; 299 nM (active) in experiment [14]; 417 nM (active) in experiment [19]; 8.71 nM (active) in experiment [20]; 1170 nM (inactive) in experiment [15]. Also, the GI50 is 918 nM (active) in [16] and 762 nM (active) in experiment [17].
